“Also recorded” adds a separate entry of the source.
Tested on: pseudovirus carrying the Spike protein of SARS-CoV-2
Format: cell-based

## CC(C)C[C@H](N[C@@H](Cc1cncn1Cc1cc(Cl)cc(Cl)c1)C(=O)O)C(=O)O [MLN-4760]
  inhibition of pseudovirus infection (attachment and entry): No inhibition of viral infection; also recorded: no ability to block the entrance to the pseudovirus

## CN1CCN(c2ccc(CNC(=O)c3ccno3)cc2)CC1 [SSAA09E2]
  inhibition of pseudovirus infection (attachment and entry): dose-dependent inhibition of pseudovirus infection; also recorded: effective at blocking infection

From patent US20220008373A1 (priority 2020, published 2022)
